“And” between values parts separate entries of the source, which are not always exact repeats. Equal values may be shown once.
Conditions: Liquid, Vibrating tube method

CCCC(=O)OCC(COC(=O)CCC)(COC(=O)CCC)COC(=O)CCC [pentaerythritol tetrabutyrate]
Conditions	mass density
283.16 K, 23020 kPa	1072.1 kg/m3
283.16 K, 23036 kPa	1072.1 kg/m3
283.16 K, 23052 kPa	1072.2 kg/m3
283.16 K, 23069 kPa	1072.1 kg/m3
283.16 K, 23089 kPa	1072.1 kg/m3
283.16 K, 23106 kPa	1072.1 kg/m3
283.16 K, 23123 kPa	1072.2 kg/m3
283.16 K, 23269 kPa	1072.2 kg/m3
283.16 K, 23431 kPa	1072.4 kg/m3
283.16 K, 23452 kPa	1072.4 kg/m3
283.16 K, 23468 kPa	1072.3 kg/m3
283.16 K, 23490 kPa	1072.3 kg/m3
283.16 K, 23507 kPa	1072.4 kg/m3
283.16 K, 23524 kPa	1072.5 kg/m3
283.16 K, 23541 kPa	1072.4 kg/m3
283.16 K, 23562 kPa	1072.4 kg/m3
283.16 K, 23580 kPa	1072.5 kg/m3
283.16 K, 23601 kPa	1072.4 kg/m3
283.16 K, 23619 kPa	1072.4 kg/m3
283.16 K, 23636 kPa	1072.4 kg/m3
283.16 K, 23657 kPa	1072.3 kg/m3
283.16 K, 23675 kPa	1072.4 kg/m3
283.16 K, 23692 kPa	1072.5 kg/m3
283.16 K, 23710 kPa	1072.6 kg/m3
283.16 K, 23767 kPa	1072.5 kg/m3
283.16 K, 23788 kPa	1072.6 kg/m3
283.16 K, 23806 kPa	1072.5 kg/m3
283.16 K, 23824 kPa	1072.5 kg/m3
283.16 K, 23846 kPa	1072.6 kg/m3
283.16 K, 23864 kPa	1072.6 kg/m3
283.16 K, 24034 kPa	1072.7 kg/m3
283.16 K, 24056 kPa	1072.8 kg/m3
283.16 K, 24075 kPa	1072.7 kg/m3
283.16 K, 24094 kPa	1072.7 kg/m3
283.16 K, 24114 kPa	1072.6 kg/m3
283.16 K, 24135 kPa	1072.6 kg/m3
283.16 K, 24154 kPa	1072.8 kg/m3
283.16 K, 24172 kPa	1072.7 kg/m3
283.16 K, 24191 kPa	1072.6 kg/m3
283.16 K, 24213 kPa	1072.7 kg/m3
283.16 K, 24231 kPa	1072.8 kg/m3
283.16 K, 24254 kPa	1072.9 kg/m3
283.16 K, 24332 kPa	1072.7 kg/m3
283.16 K, 24351 kPa	1072.9 kg/m3
283.16 K, 24370 kPa	1072.7 kg/m3
283.16 K, 24392 kPa	1072.7 kg/m3
283.16 K, 24412 kPa	1072.8 kg/m3
283.16 K, 24431 kPa	1072.9 kg/m3
283.16 K, 24453 kPa	1072.9 kg/m3
283.16 K, 24472 kPa	1072.9 kg/m3
283.16 K, 24494 kPa	1072.9 kg/m3
283.16 K, 24514 kPa	1072.9 kg/m3
283.16 K, 24532 kPa	1072.9 kg/m3
283.16 K, 24551 kPa	1072.9 kg/m3
283.16 K, 24574 kPa	1072.9 kg/m3
283.16 K, 24593 kPa	1072.9 kg/m3
283.16 K, 24613 kPa	1073 kg/m3
283.16 K, 24636 kPa	1072.9 kg/m3
283.16 K, 24656 kPa	1073 kg/m3
283.16 K, 24989 kPa	1073.1 kg/m3
283.16 K, 25506 kPa	1073.5 kg/m3
283.16 K, 25531 kPa	1073.5 kg/m3
283.16 K, 25552 kPa	1073.5 kg/m3
283.16 K, 25573 kPa	1073.4 kg/m3
283.16 K, 26529 kPa	1073.9 kg/m3
283.16 K, 26552 kPa	1074 kg/m3
283.16 K, 26575 kPa	1074 kg/m3
283.16 K, 26603 kPa	1073.9 kg/m3
283.16 K, 26626 kPa	1074 kg/m3
283.16 K, 26649 kPa	1074 kg/m3
283.16 K, 26676 kPa	1073.9 kg/m3
283.16 K, 26698 kPa	1074 kg/m3
283.16 K, 29351 kPa	1075.5 kg/m3
283.16 K, 29380 kPa	1075.4 kg/m3
283.16 K, 29409 kPa	1075.5 kg/m3
283.16 K, 33957 kPa	1077.9 kg/m3
283.16 K, 34005 kPa	1077.8 kg/m3
283.16 K, 34045 kPa	1078 kg/m3
283.16 K, 34086 kPa	1077.9 kg/m3
283.16 K, 34136 kPa	1078 kg/m3
283.16 K, 34523 kPa	1078 kg/m3
283.16 K, 34524 kPa	1078.1 kg/m3
283.16 K, 34525 kPa	1078.1 kg/m3 and 1078 kg/m3
283.16 K, 34526 kPa	1078.2 kg/m3 and 1078.1 kg/m3
283.16 K, 34527 kPa	1078.1 kg/m3 and 1078.2 kg/m3
283.16 K, 34528 kPa	1078.2 kg/m3 and 1078.1 kg/m3
283.16 K, 34529 kPa	1078.1 kg/m3
283.17 K, 5010.1 kPa	1062 kg/m3
283.17 K, 5010.7 kPa	1062.1 kg/m3
283.17 K, 5010.8 kPa	1062 kg/m3
283.17 K, 5011 kPa	1062 kg/m3
283.17 K, 5011.2 kPa	1062 kg/m3 and 1062.1 kg/m3
283.17 K, 5011.5 kPa	1062.1 kg/m3
283.17 K, 5026.1 kPa	1062 kg/m3
283.17 K, 5026.2 kPa	1061.9 kg/m3
283.17 K, 5026.4 kPa	1062 kg/m3
283.17 K, 5482.5 kPa	1062.3 kg/m3
283.17 K, 5493.4 kPa	1062.3 kg/m3
283.17 K, 5500 kPa	1062.3 kg/m3
283.17 K, 5505.1 kPa	1062.3 kg/m3
283.17 K, 6286.6 kPa	1062.7 kg/m3
283.17 K, 6293.2 kPa	1062.8 kg/m3
283.17 K, 34163 kPa	1077.8 kg/m3
283.17 K, 34186 kPa	1077.9 kg/m3
283.17 K, 34206 kPa	1078 kg/m3
283.17 K, 34224 kPa	1077.9 kg/m3
283.17 K, 34234 kPa	1077.9 kg/m3
283.17 K, 34519 kPa	1078.2 kg/m3 and 1078.1 kg/m3
283.17 K, 34520 kPa	1078.1 kg/m3
283.17 K, 34521 kPa	1078.2 kg/m3 and 1078.1 kg/m3
283.17 K, 34522 kPa	1078 kg/m3 and 1078.1 kg/m3
283.17 K, 34523 kPa	1078.2 kg/m3
283.17 K, 34524 kPa	1078.2 kg/m3
303.15 K, 13139 kPa	1050.5 kg/m3
303.15 K, 20352 kPa	1054.9 kg/m3
303.15 K, 20397 kPa	1055 kg/m3
303.15 K, 20435 kPa	1055.1 kg/m3
303.15 K, 21135 kPa	1055.3 kg/m3
303.15 K, 21185 kPa	1055.4 kg/m3
303.15 K, 21226 kPa	1055.4 kg/m3
303.15 K, 21276 kPa	1055.5 kg/m3
303.15 K, 21416 kPa	1055.6 kg/m3
303.15 K, 32925 kPa	1062.1 kg/m3
303.15 K, 32967 kPa	1062.1 kg/m3
303.15 K, 33008 kPa	1062.1 kg/m3
303.15 K, 33049 kPa	1062.2 kg/m3
303.16 K, 104.1 kPa	1042.1 kg/m3
303.16 K, 104.5 kPa	1042.2 kg/m3
303.16 K, 105.2 kPa	1042.1 kg/m3
303.16 K, 105.7 kPa	1042.2 kg/m3
303.16 K, 106 kPa	1042.3 kg/m3
303.16 K, 106.2 kPa	1042.2 kg/m3
303.16 K, 106.4 kPa	1042.2 kg/m3
303.16 K, 106.7 kPa	1042.3 kg/m3
303.16 K, 108.3 kPa	1042.3 kg/m3
303.16 K, 112.7 kPa	1042.2 kg/m3
303.16 K, 117.7 kPa	1042.3 kg/m3
303.16 K, 124.5 kPa	1042.2 kg/m3
303.16 K, 132.1 kPa	1042.1 kg/m3
303.16 K, 137.5 kPa	1042.1 kg/m3
303.16 K, 143.9 kPa	1042.3 kg/m3
303.16 K, 150.9 kPa	1042.3 kg/m3
303.16 K, 159.9 kPa	1042.2 kg/m3
303.16 K, 169 kPa	1042.2 kg/m3
303.16 K, 180.8 kPa	1042.3 kg/m3
303.16 K, 192.3 kPa	1042.2 kg/m3
303.16 K, 204.8 kPa	1042.2 kg/m3
